From patent US12473344B2, “Chimeric antigen receptor polypeptides and methods of using same” (The Board of Trustees of the Leland Stanford Junior …, priority 2018, dated 2025) come the findings set out here.

One data set concerns T cells. Nature of the data set: T cell aggregation during in vitro culture (microscope images). As to conditions: CAR-SMASh T cells incubated with inhibitor. The format is cell-based.
Data set [1] deals with B7H3-expressing Nalm6 GFP tumor cells. The experiment in a line: Co-culture killing assay (tumor GFP fluorescence). It is filed as cell-based. As to conditions: for cytotoxicity of B7H3 CAR-SMASh T cells incubated with drug prior to co-culture: 3 μM, various amounts of time (from 24 h). The method, then: Cancer cell fluorescence was monitored by time-lapse microscopy. Total integrated fluorescence intensity was calculated and plotted as a function of time. […] Cytokine in culture supernatant was quantified using the Human IL-2 ELISA MAX™ and Human IFN-γ ELISA MAX™ Deluxe kits (BioLegend).

In data set [2] the test system is markers of T cell exhaustion. The experiment in a line: Flow cytometry of activation/exhaustion-associated markers on CAR-SMASh T cells. The format is cell-based, human. The text has this: Asunaprevir (ASV), danoprevir (DPV), simeprevir (SPV), and grazoprevir (GPV) were purchased from ApexBio. Cell surface markers were stained with mouse monoclonal antibodies targeting PD-1 (PE-Cy7, eBioscience), LAG3 (PE, eBioscience), Tim-3 (BV 510, BioLegend), and B7-H3 (PE, R&D Systems). CAR molecules were stained with recombinant B7-H3 Fc (R&D Systems), protein L (Pierce Protein Biology), 1A7 anti-idiotype antibody, or FMC63 anti-idiotype antibody 136.20.1 conjugated in house using DyLight 650 Antibody Labeling Kit (Thermo Fisher). T cells were cultured in AIM V (Thermo Fisher) supplemented with 5% fetal bovine serum (Gibco), 100 U/mL rhIL-2 (PeproTech), 2 mM L-glutamine, 10 mM HEPES, 100 U/mL penicillin, and […] streptomycin (Invitrogen). Cancer cell lines were cultured in RPMI (Thermo Fisher) supplemented with 10% fetal bovine serum, 2 mM L-glutamine, 10 mM HEPES, 100 U/mL penicillin, and […] streptomycin.
(§1) Flow cytometry of samples was performed on an LSR Fortessa (BD Bioscience) and data were analyzed using FlowJo software. B7H3 CARs were detected using B7H3 Fc. GD2 and CD19 CARs were detected by 1A7 and FMC63 anti-idiotype antibody, respectively. CD 22 CARs were detected using biotinylated protein L and APC conjugated streptavidin. FACS plots were gated on live single T cells. Untransduced T cells (“Mock”) were used as controls.
(§2) CAR T cells were incubated in the indicated concentration of drug in T cell culture media (above) until analysis by FACS. Media was changed every 48-72 hours. Removal of drug was achieved by washing CAR T cells in T cell culture media 3 times.
For orientation: In flow cytometry, cells or beads pass a laser one at a time.

Data set [3] has as its system B7H3 (low)-expressing Nalm6 GFP tumor cells. The experiment in a line: Co-culture killing assay, low antigen (tumor GFP fluorescence). It is filed as cell-based. The following applies: 3 μM, various amounts of time, B7H3 (low) targets. The method, then:
(§3) CAR T cells were co-cultured with indicated cancer cell lines, engineered to constitutively express green fluorescent protein, on day 10 post activation in 96-well plates at a ratio of 1:1 (50,000 cells each). Cancer cell fluorescence was monitored by time-lapse microscopy. Total integrated fluorescence intensity was calculated and plotted as a function of time. Co-culture supernatant was harvested after 24 hours of co-culture and analyzed for the presence of cytokine. Cytokine in culture supernatant was quantified using the Human IL-2 ELISA MAX™ and Human IFN-γ ELISA MAX™ Deluxe kits (BioLegend).

The subject of another data set is HCV NS3 protease. As to conditions: for CAR expression after removal of the protease inhibitor by washing / CAR expression after incubation with protease inhibitor: B7H3 CAR-SMASh. As to the method: as §1, §2
The test system of data set [4] is B7H3-expressing Nalm6 GFP. Nature of the data set: Cytokine in co-culture supernatant (IFN-γ ELISA). It is filed as cell-based. The method, then: as §3
Data set [5] concerns Nalm6 leukemia cells expressing B7H3 and firefly luciferase. Nature of the data set: In vivo Nalm6 leukemia model, bioluminescence imaging. Further details: species or system NSG mice. As to conditions: 50 mg/kg grazoprevir+25 mg/kg ritonavir three times per day by oral gavage. The method, then:
NSG mice were infused with 10^6 Nalm6 leukemia cells expressing B7H3 and firefly luciferase. Four days later, mice were infused with 8×10^6 B7H3-BBz-SMASh CART cells or mock untransduced control cells. Mice that received B7H3-BBz-SMASh CAR T cells were either administered drug (50 mg/kg grazoprevir+25 mg/kg ritonavir) or vehicle (50% polyethylene glycol 300) three times per day by oral gavage. Bioluminescence imaging was used to follow the expansion of the firefly luciferase-expressing Nalm6 cells.
Assessed in this example was whether B7H3 CAR-nanoluciferase-SMASh CAR-T cell activity could be controlled in vivo against Nalm6 leukemia cells. NSG mice were infused with 10^6 Nalm6 leukemia cells expressing B7H3 antigen and firefly luciferase by tail vein injection. Four days later, mice were infused with 8×10^6 B7H3 CAR-nanoluciferase-SMASh CAR-T cells or mock un-transduced control T cells by tail vein injection. Mice in the “CAR OFF” group were administered 50 mg/kg grazoprevir+25 mg/kg ritonavir (a pharmacokinetic enhancer of grazoprevir) two to three times per day by oral gavage. Bioluminescence imaging was used to follow the expansion of the firefly luciferase-expressing Nalm6 cells.

In data set [6] the test system is CAR expression on T cells in vivo. The experiment in a line: In vivo CAR expression by nanoluciferase imaging. As to conditions: MED8A mice, 50 mg/kg grazoprevir+25 mg/kg ritonavir two to three times per day by oral gavage. The method, then:
In a further study, real-time expression of a C-terminal nanoluciferase (nLuc) domain-containing CAR was monitored in vivo by nanoluciferase-based imaging.
Next, in vivo CAR expression in the mice described in FIG. 27 was assessed by nanoluciferase imaging. Mice were injected with 200 μL of Nano-Glo substrate that was diluted 40× in PBS. After a 6-minute incubation period, the mice were imaged on an IVIS Spectrum imager.

Data set [7] concerns GFP-labeled tumor cells expressing cognate antigen. The experiment in a line: Co-culture killing assay of several CAR-SMASh T cells in presence of drug. It is filed as cell-based. The following applies: 3 μM asunaprevir. As to the method: as §3
Where [8] appears, read: loss of CAR expression and exhaustion markers (FIG. 6, FIG. 9).

For the compound `C=C[C@@H]1C[C@]1(NC(=O)[C@@H]1C[C@@H](Oc2ncc(OC)c3ccc(Cl)cc23)CN1C(=O)[C@@H](NC(=O)OC(C)(C)C)C(C)(C)C)C(=O)NS(=O)(=O)C1CC1` [asunaprevir, Asunaprevir], in the data set on T cells, the “T cell aggregation during in vitro culture” value is “resistant to aggregation”. The “cytotoxicity of B7H3 CAR-SMASh T cells incubated with drug prior to co-culture” value (“cytotoxicity … with drug prior to co-culture” below) in [1] is “reduced cytotoxicity”. Moreover, the “cytotoxicity … with drug prior to co-culture” value in [1] (listed as asumaprevir) was “significant reduction in killing”. In [1] (drug removed for various amounts of time), the “cytotoxicity of B7H3 CAR-SMASh T cells after drug removal prior to co-culture” value is reported as “potent killing of tumor targets indistinguishable from constitutively expressed, non-regulated CAR T cells”. For the same compound, the “expression of activation/exhaustion markers” value in data set [2] (CAR-SMASh T cells, 3 μM) is “reduces expression of activation/exhaustion markers”. In addition, the “relationship between inhibitor and expression of CAR molecules and activation/exhaustion-associated markers” value in [2] (FIG. 9) was “dose-dependent relationship”. For the same compound, in data set [2] (setting [8]), the “concentration at which maximal effect was observed” value worked out at 1 µM and the “concentration at which near maximal effect was observed” value worked out at 0.3 µM. Moreover, the “cytotoxicity … with drug prior to co-culture” value in [3] is on record as “reduced cytotoxicity”. In the data set with HCV NS3 protease (3 μM, various amounts of time), the “CD19 CAR-SMASh expression after incubation with protease inhibitor” value was “decrease in CD19 CAR-SMASh expression”, the “CD22 CAR-SMASh expression after incubation with protease inhibitor” value is reported as “decrease in CD22 CAR-SMASh expression”, the “GD2 CAR-SMASh expression after incubation with protease inhibitor” value is “decrease in GD2 CAR-SMASh expression” and the “CAR expression after incubation with protease inhibitor” value is on record as “decrease in CAR expression”. Besides, the “CAR expression after removal of the protease inhibitor by washing” value in the data set on HCV NS3 protease is recorded as “recovery of CAR expression”. In addition, the “time to full CAR re-expression after removal of drug” value with HCV NS3 protease (B7H3 SMASh-CAR T cells) is not above 72 h. In addition, in the data set on HCV NS3 protease (B7H3 SMASh-CAR T cells, 3 μM), the “time at which reduction in CAR expression was maximal” value came to 96 h and the “time within which reduction in CAR expression occurred” value is not above 24 h. In addition, the “reduction of CAR expression” value with HCV NS3 protease (B7H3 SMASh-CAR T cells, ex vivo, 3 μM (FIG. 4)) is listed as “greater than 90%”. In the data set with HCV NS3 protease (B7H3 SMASh-CAR T cells, within 24 h of removal), the “CAR re-expression after removal of drug” value is given as “approximately 1.5 log”. Besides, the “time to restoration of interferon production after removal” value in data set [4] is given as not above 24 h. Also, the “interferon production in response to antigen expressing targets” value in data set [4] (drug-induced inhibition of CAR expression) is “very low levels”.

For `C=C[C@@H]1C[C@]1(NC(=O)[C@@H]1C[C@@H]2CN1C(=O)[C@H](C(C)(C)C)NC(=O)O[C@@H]1C[C@H]1CCCCCc1nc3ccc(OC)cc3nc1O2)C(=O)NS(=O)(=O)C1CC1.O` [grazoprevir], the “cytotoxic capacity of B7H3-BBz-SMASh CAR T cells in vivo” value in data set [5] is listed as “dramatically reduces the cytotoxic capacity”. Also, the “in vivo CAR expression (nanoluciferase imaging)” value in data set [6] is listed as “diminished”.

As to `COc1ccc2c(O[C@@H]3C[C@H]4C(=O)N[C@]5(C(=O)NS(=O)(=O)C6CC6)C[C@H]5/C=C\CCCCN(C)C(=O)[C@@H]4C3)cc(-c3nc(C(C)C)cs3)nc2c1C` [simeprevir], the “CAR expression after removal of the protease inhibitor by washing” value with HCV NS3 protease is recorded as “recovery of CAR expression”. Further, the “CAR expression after incubation with protease inhibitor” value with HCV NS3 protease (3 μM, various amounts of time) was “decrease in CAR expression”.

As for “GD2 CAR-SMASh: GD2 scFv (14G2A) CAR with 4-1BB, CD3 zeta and C-terminal SMASh tag (SEQ ID NO: 11)”, the “cytotoxicity against target cells in the presence of drug (off state)” value in data set [7] is given as “significant cytotoxicity”.
